Experimental findings from ChEMBL document CHEMBL1201862, “PubChem BioAssay data set” (2004) are described below.

Assay in all cases: DTP human tumour cell line panel, 48 h
Test [1] concerns MCF7.
The subject of test [2] is NCI-H226.
Test [3] concerns ACHN.
In test [4] the test system is MOLT-4.
In test [5] the test system is RPMI-8226.
Test [6] deals with COLO 205.
In test [7] the test system is A498.
Test [8] deals with SNB-19.
In test [9] the test system is A549.
Test [10] deals with CAKI-1.
The test system of test [11] is NCI/ADR-RES.
The subject of test [12] is IGROV-1.
Test [13] relates to 786-0.
Test [14] relates to PC-3.
Test [15] concerns SK-MEL-2.
Test [16] relates to OVCAR-4.
For test [17], the system named is RXF 393.
Test [18] concerns HCC 2998.
The test system of test [19] is OVCAR-3.
Test [20] has as its system SNB-75.

Each structure is given as a SMILES string.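 Exposure lasted 48 hours, with cells grown in 96-well plates and compounds tested at five concentrations. GI50 is the concentration that inhibits growth by half.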 Calls of active or inactive are those of the source. No stated cut-off is given here; in the data, active = GI50 up to about 1.1 µM and inactive = higher. Bounds are passed on as bounds.

Consider `Cc1ccccc1/N=N/c1ccc(N/N=C2/CCCNC2=O)c(C)c1`, for which the GI50 is 64.1 µM (inactive) in test [1]; > 100 µM (inactive) in test [2]; > 100 µM (inactive) in [3]; 34.6 µM (inactive) in test [4]; > 100 µM (inactive) in [5]; > 100 µM (inactive) in test [6]. Besides, the GI50 is > 100 µM (inactive) in test [7]; > 100 µM (inactive) in [8]; 68.1 µM (inactive) in test [9]; > 100 µM (inactive) in test [10]; > 100 µM (inactive) in [11]; > 100 µM (inactive) in [12]. The GI50 in [13] was > 100 µM (inactive); in test [14], > 100 µM (inactive); in test [15], > 100 µM (inactive); in test [16], 66.8 µM (inactive); in test [17], > 100 µM (inactive); in [18], > 100 µM (inactive).

As to `C=C(C)C(CC=C(C)C)CC12CC(CC=C(C)C)C(C)(C)C(CC=C(C)C)(C(=O)C(Cc3ccc(O)c(O)c3)=C1O)C2=O` (stereo not drawn), the GI50 in test [1] is > 100 µM (inactive); in [2] it was > 100 µM (inactive); in test [3] it was > 100 µM (inactive); in test [4] it was 50.6 µM (inactive); in [5], > 100 µM (inactive); in test [6], > 100 µM (inactive). The GI50 in test [19] is > 100 µM (inactive); in test [7], 74 µM (inactive); in test [8], > 100 µM (inactive); in test [20], > 100 µM (inactive); in [9] it was > 100 µM (inactive); in test [10], > 100 µM (inactive). The GI50 in test [11], in test [12], in [13], in test [14], in test [16] and in [17] was > 100 µM (inactive) each time. Also, in [18], the GI50 is > 100 µM (inactive).

Regarding `CC(C)OC(=O)[C@H]1ON2O[C@H](O[C@@H]3CCCC[C@H]3c3ccccc3)C([Si](C)(C)c3ccccc3)[C@H]3OC(=O)[C@@H]1C32` (stereo partly drawn), the GI50 in test [1] was 30.1 µM (inactive); in [2], > 100 µM (inactive); in [3], > 100 µM (inactive); in test [4], 18.7 µM (inactive); in test [5], > 100 µM (inactive); in test [6], > 100 µM (inactive). In addition, the GI50 in test [19], in test [7], in [8], in [20], in test [9] and in test [10] was > 100 µM (inactive) each time. In addition, the GI50 in [11], in test [12], in test [13], in test [14], in [15] and in [17] was > 100 µM (inactive) in each case. Besides, the GI50 in [18] is > 100 µM (inactive).

As for `CSc1s[s+]c(SC)c1-c1ccccc1`, the GI50 in [1] is 17 µM (inactive); in test [3] it was 16.3 µM (inactive); in test [4], 46.1 µM (inactive); in test [5] it was 19.8 µM (inactive); in [6] it was 18.4 µM (inactive); in test [19] it was 15 µM (inactive). Moreover, the GI50 in [7] was 19.8 µM (inactive); in test [8], 16.6 µM (inactive); in test [9], 28.1 µM (inactive); in [10], 17.1 µM (inactive); in [11] it was 18.7 µM (inactive); in [12], 17.6 µM (inactive). Also, the GI50 in test [13] was 14.1 µM (inactive); in test [14], 21.7 µM (inactive); in test [16], 0.329 µM (active); in test [17], 16.3 µM (inactive); in test [18] it was 5.62 µM (inactive).

For the compound `O=C(O)c1ccc(C=C2Sc3ccccc3S2)cc1`, the GI50 in test [1] is 35 µM (inactive); in [2] it was > 100 µM (inactive); in test [3] it was 22.6 µM (inactive); in [4] it was 42.4 µM (inactive); in test [5] it was 63.7 µM (inactive); in [6], 92.7 µM (inactive). Besides, the GI50 in [19] was 30.3 µM (inactive); in test [7] it was 14.5 µM (inactive); in test [8] it was 73.8 µM (inactive); in test [9], 43.2 µM (inactive); in test [10], 45.3 µM (inactive); in test [11], 59.3 µM (inactive). For the same compound, the GI50 in test [12] is 82.8 µM (inactive); in [13], 98.2 µM (inactive); in [14], 50.7 µM (inactive); in [15] it was 29.4 µM (inactive); in test [16], 55.3 µM (inactive); in test [17] it was 54.5 µM (inactive). For the same compound, the GI50 in test [18] is 8.07 µM (inactive).

`CC(C)[C@@H]1CC[C@@H](C)C[C@H]1OC(=O)/C=C1/C2C=CC(O2)C1C(=O)O[C@@H]1C[C@H](C)CC[C@H]1C(C)C` (stereo partly drawn): the GI50 in test [1] is 97.5 µM (inactive); in [2], 28.4 µM (inactive); in test [3], > 100 µM (inactive); in [4], 43.8 µM (inactive); in test [5], > 100 µM (inactive); in [6], > 100 µM (inactive). The GI50 in test [19], in [7], in [8], in test [20], in test [9] and in [10] was > 100 µM (inactive) throughout. Besides, the GI50 was > 100 µM (inactive) in [11]; > 100 µM (inactive) in [12]; > 100 µM (inactive) in test [13]; 56 µM (inactive) in test [14]; > 100 µM (inactive) in test [16]; > 100 µM (inactive) in test [17]. Besides, in test [18], the GI50 was 13.5 µM (inactive).

With `CCOC(=O)c1nc2c3c(ncn2n1)Oc1c(c(-c2ccccc2)nn1-c1ccccc1)C3c1ccc(Cl)cc1` (stereo not drawn), the GI50 in test [1], in test [2], in test [3], in test [5], in [6] and in test [19] was > 100 µM (inactive) throughout. Further, the GI50 in [7], in test [8], in [20], in [9], in test [10] and in test [11] was > 100 µM (inactive) each time. For the same compound, the GI50 in test [13], in test [14], in test [15], in test [16], in test [17] and in test [18] was > 100 µM (inactive) each time.

Regarding `COc1cc(O)c(C(=O)/C=C/c2ccccc2)c(OC)c1` [FLAVOKAWAIN B], the GI50 was 7.8 µM (inactive) in test [1]; 4.15 µM (inactive) in [2]; 8.73 µM (inactive) in [3]; 5.37 µM (inactive) in test [4]; 3.85 µM (inactive) in test [5]; 14.5 µM (inactive) in [6]. For the same compound, the GI50 is 7.1 µM (inactive) in test [19]; 4.43 µM (inactive) in [7]; 3.47 µM (inactive) in test [8]; 10.3 µM (inactive) in test [9]; 5.28 µM (inactive) in test [10]; 3.8 µM (inactive) in test [11]. For the same compound, the GI50 in [12] is 4.53 µM (inactive); in [13], 4.62 µM (inactive); in test [14], 6.1 µM (inactive); in test [15] it was 4.62 µM (inactive); in [16], 8 µM (inactive); in test [17] it was 12.5 µM (inactive). In addition, the GI50 in [18] was 2.97 µM (inactive).

By GI50 is commonly meant the concentration at which growth is held to half of that of the control.
